In article PMC9926234, “Iterative computational design and crystallographic screening identifies potent inhibitors targeting the Nsp3 macrodomain of SARS-CoV-2” (Proceedings of the National Academy of Sciences of the …, 2023):
Like-named read-outs stand apart in the source and are kept apart here.

Experiments:
SARS-CoV-2 NSP3 Mac1 [1] = molecular target: T1, SARS-CoV-2 NSP3 Mac1 (Severe acute respiratory syndrome coronavirus 2, UniProt P0DTD1); type: binding; details: for Refined occupancy: ligand occupancy after refinement (phenix.refine)
SARS-CoV-2 NSP3 Mac1 [2] = molecular target: T1, SARS-CoV-2 NSP3 Mac1; type: binding; design: contains a conserved macrodomain enzyme (Mac1); details: for Spearman est (compound concentration vs apparent Tm): DSF dose responsiveness, 1 µM nsp3 mac1, adj p given
Method: DSF and associated compound handling was performed as described ([12]), with 5 µM dye “Fluorescent Yellow” (Jacquard iDye Cat #JID1405) used in place of SYPRO Orange. Compounds were tested in triplicate, at seven concentrations in two-fold serial dilutions, at a top concentration of either 1,000 or 100 μM. To minimize experimental noise arising from plate location-based effects on Tma, all concentrations and replicates for each compound were tested within a single region of the microtiter plates, including a DMSO-only control from which ΔTmas were calculated for that compound. […] For each compound, to determine statistical significance of the dose responsive thermal shift, the Spearman’s coefficient was calculated between compound concentration and ΔTma.

[3] = PanDDA event map, 1 minus background density correction, crystal soaking of Mac1
[4] = true hit = binding in crystallographic soaking or the HTRF-based binding assay
[5] = maximal thermal upshift vs DMSO control

Row | SMILES | Spearman est (compound concentration vs apparent Tm) (SARS-CoV-2 NSP3 Mac1 [2]) | DSF max dTma (SARS-CoV-2 NSP3 Mac1 [2]; [5]) [°C] | further results
1 | CC1(C(=O)O)CCN(C(=O)Cc2c[nH]c3nccc(Cl)c23)C1 (centres unmarked) [FRESH00014134848] | 0.41 | – | 1-BDC (SARS-CoV-2 NSP3 Mac1 [1]; [3]): 0.11; Refined occupancy (SARS-CoV-2 NSP3 Mac1 [1]; crystal soaking of Mac1): 22; HIT* (SARS-CoV-2 NSP3 Mac1 [1]; [4]): Y; DSF max dTma (SARS-CoV-2 NSP3 Mac1 [2]; maximal thermal upshift): 0.07 ˚C
2 | Nc1ncnc(N2CCC(Oc3ccncc3)C2)c1Cl (centres unmarked) [ZINC000302059710] | −0.85 | 0 | 1-BDC (SARS-CoV-2 NSP3 Mac1 [1]; PanDDA event map background density correction, crystal soak, Compound_concentration 100 mM, PanDDA run dmso_34): 0.13; 1-BDC (SARS-CoV-2 NSP3 Mac1 [1]; [3]): 0.13; PanDDA hit? (SARS-CoV-2 NSP3 Mac1 [1]; crystal soak, Compound_concentration 100 mM, Echo dispense 40 nl, PanDDA run dmso_34): TRUE; Modeled? (SARS-CoV-2 NSP3 Mac1 [1]; ligand modeled in crystal structure, crystal soak, Compound_concentration 100 mM, PanDDA run dmso_34): TRUE; Refined occupancy (SARS-CoV-2 NSP3 Mac1 [1]; crystal soaking of Mac1): 26; HIT* (SARS-CoV-2 NSP3 Mac1 [1]; overall hit flag: binding in crystallographic soaking or the HTRF-based binding assay): Y
3 | O=C(O)C[C@@H]1CCCN(c2ncnc3nc[nH]c23)C1 [REAL250002852032] | 0.29 | – | 1-BDC (SARS-CoV-2 NSP3 Mac1 [1]; [3]): 0.19; Refined occupancy (SARS-CoV-2 NSP3 Mac1 [1]; crystal soaking of Mac1): 38; HIT* (SARS-CoV-2 NSP3 Mac1 [1]; [4]): Y; DSF max dTma (SARS-CoV-2 NSP3 Mac1 [2]; maximal thermal upshift): 0.58 ˚C
4 | NC(=O)c1ccc(Cc2noc(CCc3ccoc3)n2)cc1 [ZINC000546336511] | −0.79 | – | –
5 | CNc1cc(-c2noc(CN3CCCC3=O)n2)ncn1 [ZINC000904236028] | −0.56 | – | –
6 | OCc1cn(C2CCCN(c3ncnc4[nH]ccc34)C2)nn1 (centres unmarked) [ZINC000292637864] | 0.65 | – | –
7 | Cn1cnc(C(=O)NCC2CCN2C(=O)c2ncnc3[nH]ccc23)c1 (centres unmarked) [ZINC000949397098] | 0.3 | – | DSF max dTma (SARS-CoV-2 NSP3 Mac1 [2]; maximal thermal upshift): 0.1 ˚C
8 | O=C(COC(=O)c1ccc2nsnc2c1)c1ccccc1 [Z2380] | – | 0.47 | –
9 | Cc1ccccc1CC(C)c1nc(-c2cc(N)ncn2)no1 (centres unmarked) [Z4066] | – | 0.98 | –
10 | CN(Cc1cccc(O)c1)C(=O)Cc1ccncc1 [Z1186] | – | 0.19 | –
11 | O=C(Cc1ccc2c(c1)CCO2)OCc1cc2ccccc2[nH]c1=O [Z0132] | – | 0.21 | –
12 | Cc1ccc(-c2noc(CCCSC3CCCNC3=O)n2)cc1F (centres unmarked) [ZINC000359061121] | 0.71 | – | –
13 | CS(=O)(=O)C1CCCN(c2ncnc3[nH]c(Cl)cc23)C1 (centres unmarked) [ZINC000865679550] | 0.71 | – | –
14 | O=C(O)CC1Cc2ccccc2N1C(=O)c1ccc(NC(=O)NC2CC2)cc1 (centres unmarked) [8539_0039] | 0.09 | – | DSF max dTma (SARS-CoV-2 NSP3 Mac1 [2]; maximal thermal upshift): 2.09 ˚C
15 | Cc1cc(C(=O)C(C#N)c2nnc3n2CCCCC3)cc(O)n1 (centres unmarked) [ZINC000183202483] | −0.33 | – | DSF max dTma (SARS-CoV-2 NSP3 Mac1 [2]; maximal thermal upshift): 0 ˚C
16 | Nc1cc(-c2noc(CCn3cccn3)n2)ncn1 [ZINC000820965086] | 0.58 | – | –
17 | CNc1cc(-c2noc(CN3CCCC3=O)n2)ncn1 [Z6028] | – | 0.33 | –
18 | CN(C(=O)CN1CCNC(=O)C1)c1ccc(-c2nccs2)cc1 [ZINC000910053700] | −0.73 | – | –
19 | O=C(c1cccc(O)c1)N1CC=C(c2ccccc2)C1 [Z4141] | – | 0.71 | –
20 | Nc1ncnc(SCCc2cccc(Cl)c2Cl)n1 [Z1086] | – | 0.21 | –

Row | SMILES | Spearman est (compound concentration vs apparent Tm) (SARS-CoV-2 NSP3 Mac1 [2]) | DSF max dTma (SARS-CoV-2 NSP3 Mac1 [2]; [5]) [°C] | further results
21 | CNS(=O)(=O)c1cccc(-c2ncnc3[nH]c4ccccc4c23)c1 [ZINC001240776402] | −0.29 | – | DSF max dTma (SARS-CoV-2 NSP3 Mac1 [2]; maximal thermal upshift): 0.27 ˚C
22 | Clc1cc2c(N3CCCC(c4cccnc4)C3)ncnc2[nH]1 (centres unmarked) [ZINC000866018680] | 0.2 | – | –
23 | O=C1CCCN1Cc1cccc(N2C(=O)N[C@@H](CO)C2=O)c1 [ZINC001320848619] | 0.18 | – | DSF max dTma (SARS-CoV-2 NSP3 Mac1 [2]; maximal thermal upshift): 0.2 ˚C
24 | O=C1CSc2cc(C(=O)OC3c4ccccc4CC3F)ccc2N1 (centres unmarked) [Z4718398554] | −0.18 | – | –
25 | O=C(c1cccc(O)c1)N1CCC(Nc2ccccc2)C1 (centres unmarked) [ZINC000182324508] | 0.13 | – | –
26 | O=c1[nH]ccn2c(CSc3nc4ccccc4s3)nnc12 [ZINC001458791015] | 0.66 | – | –
27 | O=C(Nc1cccnc1)Nc1nc2ccccc2c(=O)[nH]1 [Z8593] | – | 0 | –
28 | Fc1ccc(F)c(Sc2ncnc3[nH]ccc23)c1 [Z5289] | – | 1.24 | –
29 | c1ccc2c(c1)N(c1ncnc3[nH]ccc13)CC21CC1 [ZINC000352369310] | −0.82 | – | –
30 | Cc1ccc(CC(=O)OCc2noc(C3CC3)n2)cc1O [Z2995] | – | 0.32 | –
31 | Cc1ccc(-c2noc(C3CC(=O)N(c4cn[nH]c4)C3)n2)cc1 (centres unmarked) [Z6019] | – | 0.27 | –
32 | Cc1ccccc1CNc1ncnc(-c2ccccc2)n1 [ZINC001184571635] | 0.82 | – | –
33 | COc1ccc(-c2nnc(NC(=O)Cc3ncccc3F)s2)cc1 [ZINC000350686468] | 0.17 | – | –
34 | NC(=O)c1ccc(CCSc2cccc(F)c2)cc1 [ZINC001165768885] | −0.73 | – | –
35 | CC(C(=O)N1CCCC1c1nc(C(N)=O)no1)c1cccc(F)c1 (centres unmarked) [ZINC000373034135] | 0.29 | – | –
36 | Clc1cc2c(N3CCCC(c4cccnc4)C3)ncnc2[nH]1 (centres unmarked) [Z8680] | – | 0.25 | –
37 | Clc1cc2c(N3CCCC(c4nnc[nH]4)C3)ncnc2[nH]1 (centres unmarked) [ZINC001187497156] | 0.32 | – | –
38 | O=C(c1c(F)ccc(O)c1F)N1CCC(Oc2cccc(F)c2)C1 (centres unmarked) [Z5547] | – | 0.07 | –
39 | COc1ccc(-c2nnc(NC(=O)Cc3ncccc3F)s2)cc1 [Z6468] | – | 0.58 | –
40 | Cc1oc(-c2cccs2)nc1Cc1nc(-c2cncnc2N)no1 [Z3789] | – | 0.56 | –

Row | SMILES | Spearman est (compound concentration vs apparent Tm) (SARS-CoV-2 NSP3 Mac1 [2]) | DSF max dTma (SARS-CoV-2 NSP3 Mac1 [2]; [5]) [°C] | further results
41 | Cc1nc2c(C(=O)OCc3ccnc(N(C)C)c3)ccnc2[nH]1 [Z4620] | – | 1.08 | –
42 | Cc1ccc(-c2noc(CCCSC3CCCNC3=O)n2)cc1F (centres unmarked) [Z1121] | – | 0.57 | –
43 | Cc1nc(Cc2noc(-c3ncnc4[nH]ccc34)n2)no1 [ZINC000904346960] | 0.21 | – | DSF max dTma (SARS-CoV-2 NSP3 Mac1 [2]; maximal thermal upshift): 0.27 ˚C
44 | Nc1ncnc2c1ncn2CCCc1ccsc1 [ZINC000570815972] | 0.79 | – | –
45 | c1ccc2c(-c3noc(CCCc4nc(C5CC5)no4)n3)n[nH]c2c1 [ZINC000356759652] | 0.72 | – | –
46 | Nc1ncc(S(=O)(=O)N2CCC2c2cccc(F)c2)cn1 (centres unmarked) [ZINC001365141527] | −0.66 | – | DSF max dTma (SARS-CoV-2 NSP3 Mac1 [2]; maximal thermal upshift): 0 ˚C
47 | O=C(Nc1cccnc1)Nc1nc2ccccc2c(=O)[nH]1 [Z4718398593] | −0.56 | – | –
48 | CS(=O)(=O)C1CCCN(c2ncnc3[nH]c(Cl)cc23)C1 (centres unmarked) [Z9550] | – | 0.64 | –
49 | O=c1[nH]ccn2c(CSc3nc4ccccc4s3)nnc12 [Z1015] | – | 0.67 | –
50 | CNc1cc(N2CCCC(c3nc(C)no3)C2)ncn1 (centres unmarked) [ZINC000891943247] | 0.24 | – | DSF max dTma (SARS-CoV-2 NSP3 Mac1 [2]; maximal thermal upshift): 0.27 ˚C
51 | CCc1noc(C(C)OC(=O)c2cccc3[nH]c(=O)oc23)n1 (centres unmarked) [ZINC000751938095] | −0.41 | – | DSF max dTma (SARS-CoV-2 NSP3 Mac1 [2]; maximal thermal upshift): 0.13 ˚C
52 | Cc1oc(=O)oc1CSc1ncnc2[nH]cnc12 [ZINC000222377450] | 0.54 | – | –
53 | CC(C)c1noc(CCc2nc(-c3ccnc4[nH]ccc34)no2)n1 [ZINC000351161347] | −0.81 | – | –
54 | O=C(Nc1cccnc1)Nc1ccc2ccccc2n1 [Z8614] | – | 0.06 | –
55 | COC(=O)CC1CN(c2ncnc3[nH]ccc23)c2ccccc21 (centres unmarked) [ZINC000371804911] | 0.77 | – | –
56 | Cc1csc(=Nc2ccccc2)n1Cc1nnc2n1CCNC2=O [Z5356] | – | 0.51 | –
57 | O=C(c1cccc(O)c1)N1CC=C(c2ccccc2)C1 [ZINC000336444141] | 0.55 | – | –
58 | NC(=O)c1cc(N2CCCC[C@H]2C(=O)O)ncn1 [REAL250003324764] | 0.14 | – | DSF max dTma (SARS-CoV-2 NSP3 Mac1 [2]; maximal thermal upshift): 0.15 ˚C
